Measurements from US12077503B2, “Substituted cyclic amides and their use as herbicides” (FMC CORPORATION, priority 2015, dated 2024).

Experiments:
Type in all cases: in vivo
[1] = test system: barnyardgrass (Echinochloa crus-galli); test: Test A preemergence
How it was run: (§1)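 Seeds sprayed preemergence with a directed soil spray, or plants at 2 to 10 cm height and one- to two-leaf stage sprayed postemergence, with test chemicals in a non-phytotoxic solvent mixture containing surfactant, in loam soil–sand blend. Injury rated visually against untreated controls after about 10 d in greenhouse, 0 (no effect) to 100 (complete control).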

[2] = test system: pigweed (Amaranthus retroflexus); test: Test A preemergence
[3] = test system: ragweed (common ragweed, Ambrosia elatior); test: Test A preemergence
How it was run: as §1

[4] = test system: giant foxtail (Setaria faberii); test: Test A preemergence
How it was run: as §1

[5] = test system: ryegrass, Italian (Italian ryegrass, Lolium multiflorum); test: Test A preemergence
How it was run: as §1

Kochia (Kochia scoparia) [6] = test: Test A preemergence
How it was run: as §1

[7] = test system: barnyardgrass (Echinochloa crus-galli); test: Test B flooded paddy test; settings: Flood, 250 g ai/ha; 0 to 100 scale where 0 is no effect and 100 is complete control; 13 to 15 d
How it was run: (§2)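 2-leaf plants; pots flooded 3 cm over soil; cpd added to paddy water; depth held; greenhouse 13–15 d; visual rating vs controls, 0 = no effect, 100 = complete control.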

[8] = test system: ducksalad (Heteranthera limosa); test: Test B flooded paddy test; settings: Flood, 250 g ai/ha; 0 to 100 scale where 0 is no effect and 100 is complete control; 13 to 15 d
How it was run: as §2

[9] = test system: sedge, umbrella (small-flower umbrella sedge, Cyperus difformis); test: Test B flooded paddy test; settings: Flood, 250 g ai/ha; 0 to 100 scale where 0 is no effect and 100 is complete control; 13 to 15 d
How it was run: as §2

rice (Oryra sativa) = test: Test B flooded paddy test; settings: Flood, 250 g ai/ha; 0 to 100 scale where 0 is no effect and 100 is complete control; 13 to 15 d
How it was run: as §2

[10] = test system: barnyardgrass (Echinochloa crus-galli); test: Test A postemergence
How it was run: as §1

[11] = test system: pigweed (Amaranthus retroflexus); test: Test A postemergence
How it was run: as §1

[12] = test system: ragweed (common ragweed, Ambrosia elatior); test: Test A postemergence
How it was run: as §1

[13] = test system: giant foxtail (Setaria faberii); test: Test A postemergence
How it was run: as §1

[14] = test system: wheat (Triticum aestivum); test: Test A postemergence
How it was run: as §1

[15] = test system: ryegrass, Italian (Italian ryegrass, Lolium multiflorum); test: Test A postemergence
How it was run: as §1

[16] = test system: Galium (catchweed bedstraw, Galium aparine); test: Test A postemergence
How it was run: as §1

corn (Zea mays) = test: Test A postemergence
How it was run: as §1

[17] = test system: blackgrass (Alopecurus myosuroides); test: Test A postemergence
How it was run: as §1

Kochia (Kochia scoparia) [18] = test: Test A postemergence
How it was run: as §1

[19] = 125 g ai/ha, Preemergence, visual injury after approximately 10 d, 0 to 100 scale where 0 is no effect and 100 is complete control
[20] = 500 g ai/ha, preemergence, 0 to 100 scale, 0 = no effect, 100 = complete control
[21] = 125 g ai/ha, postemergence, visual rating after approx. 10 d, 0 to 100 scale (0 no effect, 100 complete control)
[22] = Postemergence, 500 g ai/ha, 0 to 100 scale where 0 is no effect and 100 is complete control
[23] = 500 g ai/ha, postemergence, visual injury, 0 to 100 scale (0 no effect, 100 complete control), approx. 10 d

Row | Structure (SMILES) | Plant response rating, Barnyardgrass [1, 19] | Plant response rating, Barnyardgrass [1, 20] | Plant response rating, Pigweed [2, 19] | Plant response rating, Pigweed [2, 20] | Plant response rating, Ragweed [3, 19] | Plant response rating, Ragweed [3, 20] | Plant response rating, Foxtail, Giant [4, 19] | Plant response rating, Foxtail, Giant [4, 20] | Plant response rating, Ryegrass, Italian [5, 19] | Plant response rating, Ryegrass, Italian [5, 20] | Plant response rating, Kochia (Kochia (Kochia scoparia) [6]; [19]) | Plant response rating, Kochia (Kochia (Kochia scoparia) [6]; [20]) | Plant response rating, Barnyardgrass [7] | Plant response rating, Ducksalad [8] | Plant response rating, Sedge, Umbrella [9] | Plant response rating, Rice (rice (Oryra sativa)) | Plant response rating, Barnyardgrass [10, 21] | Plant response rating, Pigweed [11, 21] | Plant response rating, Ragweed [12, 21] | Plant response rating, Foxtail, Giant [13, 21] | other results
1 | CN1CC(c2cccc(OC(F)F)c2)C(C)(C(=O)Nc2cccc(F)c2F)C1=O (stereo not drawn) [Compound 619] | 0 | 0 | 0 | 0 | 0 | 0 | 0 | 0 | 0 | 0 | 20 | 20 | 0 | 0 | 0 | 0 | 0 | 0 | 0 | 0 | Plant response rating, Barnyardgrass [10, 22]: 0; Plant response rating, Pigweed [11, 22]: 0; Plant response rating, Ragweed [12, 22]: 0; Plant response rating, Foxtail, Giant [13, 22]: 0; Plant response rating, Wheat [14, 21]: 0; Plant response rating, Wheat [14, 22]: 0; Plant response rating, Ryegrass, Italian [15, 21]: 0; Plant response rating, Ryegrass, Italian [15, 22]: 0; Plant response rating, Galium [16, 21]: 0; Plant response rating, Galium [16, 22]: 0; Plant response rating, Corn (corn (Zea mays); [21]): 0; Plant response rating, Corn (corn (Zea mays); [22]): 0; Plant response rating, Blackgrass [17, 21]: 0; Plant response rating, Blackgrass [17, 22]: 0; Plant response rating, Kochia (Kochia (Kochia scoparia) [18]; [21]): 0; Plant response rating, Kochia (Kochia (Kochia scoparia) [18]; [22]): 0
2 | N#Cc1cccc(C2CNC(=O)C2C(=O)Nc2cccc(F)c2F)c1 (stereo not drawn) [Compound 621] | 90 | 90 | 0 | 20 | 0 | 90 | 90 | 90 | 0 | 40 | 0 | 40 | 50 | 100 | 0 | 20 | 90 | 0 | 0 | 70 | Plant response rating, Barnyardgrass [10, 22]: 90; Plant response rating, Pigweed [11, 22]: 0; Plant response rating, Ragweed [12, 22]: 0; Plant response rating, Foxtail, Giant [13, 22]: 90; Plant response rating, Wheat [14, 21]: 0; Plant response rating, Wheat [14, 22]: 50; Plant response rating, Ryegrass, Italian [15, 21]: 0; Plant response rating, Ryegrass, Italian [15, 22]: 20; Plant response rating, Galium [16, 21]: 30; Plant response rating, Galium [16, 22]: 40; Plant response rating, Corn (corn (Zea mays); [21]): 0; Plant response rating, Corn (corn (Zea mays); [22]): 20; Plant response rating, Blackgrass [17, 21]: 0; Plant response rating, Blackgrass [17, 22]: 20; Plant response rating, Kochia (Kochia (Kochia scoparia) [18]; [21]): 0; Plant response rating, Kochia (Kochia (Kochia scoparia) [18]; [22]): 20
3 | Cc1cc(C2CNC(=O)C2C(=O)Nc2ccccc2F)cs1 (stereo not drawn) [Compound 630] | 90 | 90 | 0 | 0 | 0 | 30 | 80 | 90 | 0 | 20 | 0 | 50 | 20 | 95 | 0 | 0 | 80 | 0 | 0 | 30 | Plant response rating, Barnyardgrass [10, 22]: 90; Plant response rating, Pigweed [11, 23]: 0; Plant response rating, Ragweed [12, 23]: 0; Plant response rating, Foxtail, Giant [13, 23]: 30; Plant response rating, Wheat [14, 21]: 0; Plant response rating, Wheat [14, 23]: 20; Plant response rating, Ryegrass, Italian [15, 21]: 0; Plant response rating, Ryegrass, Italian [15, 23]: 0; Plant response rating, Galium [16, 21]: 0; Plant response rating, Galium [16, 23]: 40; Plant response rating, Corn (corn (Zea mays); [21]): 0; Plant response rating, Corn (corn (Zea mays); [22]): 20; Plant response rating, Blackgrass [17, 21]: 0; Plant response rating, Blackgrass [17, 22]: 20; Plant response rating, Kochia (Kochia (Kochia scoparia) [18]; [21]): 0; Plant response rating, Kochia (Kochia (Kochia scoparia) [18]; [23]): 0
4 | O=C1NCC(c2csc(Br)c2)C1C(=O)Nc1ccccc1F (stereo not drawn) [Compound 648] | 70 | 90 | 0 | 40 | 0 | 20 | 60 | 80 | 30 | 40 | 0 | 50 | 20 | 100 | 0 | 20 | 70 | 30 | 0 | 10 | Plant response rating, Barnyardgrass [10, 23]: 80; Plant response rating, Pigweed [11, 23]: 50; Plant response rating, Ragweed [12, 23]: 30; Plant response rating, Foxtail, Giant [13, 23]: 50; Plant response rating, Wheat [14, 21]: 0; Plant response rating, Wheat [14, 23]: 0; Plant response rating, Ryegrass, Italian [15, 21]: 30; Plant response rating, Ryegrass, Italian [15, 23]: 50; Plant response rating, Galium [16, 21]: 20; Plant response rating, Galium [16, 23]: 60; Plant response rating, Corn (corn (Zea mays); [21]): 0; Plant response rating, Corn (corn (Zea mays); [23]): 0; Plant response rating, Blackgrass [17, 21]: 30; Plant response rating, Blackgrass [17, 23]: 50; Plant response rating, Kochia (Kochia (Kochia scoparia) [18]; [21]): 0; Plant response rating, Kochia (Kochia (Kochia scoparia) [18]; [23]): 0
5 | CN1CC(c2cc(F)cc(F)c2)C(C(=O)Nc2cccc3c2CCC3)C1=O (stereo not drawn) [Compound 659] | 90 | 90 | 0 | 0 | 0 | 0 | 90 | 90 | 0 | 30 | 0 | 0 | 60 | 80 | 0 | 15 | 70 | 0 | 0 | 90 | Plant response rating, Barnyardgrass [10, 23]: 90; Plant response rating, Pigweed [11, 23]: 0; Plant response rating, Ragweed [12, 23]: 0; Plant response rating, Foxtail, Giant [13, 23]: 90; Plant response rating, Wheat [14, 21]: 0; Plant response rating, Wheat [14, 23]: 50; Plant response rating, Ryegrass, Italian [15, 21]: 0; Plant response rating, Ryegrass, Italian [15, 23]: 60; Plant response rating, Galium [16, 21]: 0; Plant response rating, Galium [16, 23]: 20; Plant response rating, Corn (corn (Zea mays); [21]): 0; Plant response rating, Corn (corn (Zea mays); [23]): 50; Plant response rating, Blackgrass [17, 21]: 40; Plant response rating, Blackgrass [17, 23]: 50; Plant response rating, Kochia (Kochia (Kochia scoparia) [18]; [21]): 20; Plant response rating, Kochia (Kochia (Kochia scoparia) [18]; [23]): 20
